Assays:
[1] = system: SAM in HCT116 MTAP-deleted cells; test: Cellular assay of target engagement (SAM), LC-MS/MS; format: cell-based, human; details: Homo sapiens, HCT-116, Table 5a, 72 h, read-out: Cell 72 h SAM Inhibition (MTAP −/−)
Outline: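 Target engagement was read as intracellular SAM, measured by LC-MS/MS with d3-SAM as internal standard in methanol/acetic acid extracts. These came from MTAP-deleted HCT116 colon carcinoma cells exposed to inhibitor for 72 hrs.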

MAT2A homodimer = molecular target: T1, MAT2A homodimer (Homo sapiens, UniProt P31153); test: MAT2A biochemical assay (liberated phosphate, PiColorLock Gold); details: Table 5a; MAT2A biochemical assay; read-out: Enzyme Inhibition
T1 construct: inferred from the Ni sepharose purification and imidazole elution; made in house; host or cells: SF9 insect cells, recombinant baculovirus (Bac to Bac, pFASTBAC1)
T1 sequence (P31153 whole entry): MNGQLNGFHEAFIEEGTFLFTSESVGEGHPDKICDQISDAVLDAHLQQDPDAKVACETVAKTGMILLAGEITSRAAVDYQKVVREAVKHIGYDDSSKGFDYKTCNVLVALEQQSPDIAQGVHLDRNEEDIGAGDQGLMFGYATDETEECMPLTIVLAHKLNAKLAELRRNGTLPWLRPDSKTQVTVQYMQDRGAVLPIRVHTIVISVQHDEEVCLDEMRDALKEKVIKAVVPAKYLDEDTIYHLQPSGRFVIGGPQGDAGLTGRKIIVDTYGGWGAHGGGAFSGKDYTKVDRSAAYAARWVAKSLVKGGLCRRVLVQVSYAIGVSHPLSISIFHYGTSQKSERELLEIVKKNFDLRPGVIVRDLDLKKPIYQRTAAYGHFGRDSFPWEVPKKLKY
Outline: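 Readout is liberated phosphate (PiColorLock Gold), stoichiometric with SAM production, quantified against a potassium phosphate standard curve. Enzyme: recombinant MAT2A homodimer from Sf9, equilibrated 60 min at 25 °C with compound before 60 min reaction with substrate mix containing 500 μM ATP and 400 μM L-methionine.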

HCT116 MTAP+/+ = test: Inhibition of cellular proliferation (Cell Titer Glo), HCT116 MTAP+/+; format: cell-based; details: Homo sapiens, HCT-116, 96 h, Table 5a, 4 days, read-out: 4 Day Relative Growth Inhibition (MTAP +/+)
Outline: (§1)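 After 4 days of compound exposure at 37 °C, starting 24 h after plating, growth of the MTAP-wildtype and MTAP-deleted HCT116 pair was measured as ATP luminescence (CellTiter-Glo). The proliferation index was signal minus no-cell blank, divided by blank-corrected 0.2% DMSO control.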

HCT116 MTAP-/- = test: Inhibition of cellular proliferation (Cell Titer Glo), HCT116 MTAP-/-; format: cell-based, human; details: Homo sapiens, HCT-116, 96 h, Table 5a, 4 days, read-out: 4 Day Relative Growth Inhibition (MTAP −/−)
Outline: as §1

SMILES | IC50 [1] [nM] | IC50 (MAT2A homodimer) [nM] | IC50 (HCT116 MTAP+/+) [nM] | IC50 (HCT116 MTAP-/-) [nM]
Cn1cc2cc(N3Cc4ccc(NCC(F)(F)F)cc4N(c4ccc(OC(F)F)cc4)C3=O)ccc2n1 [Example 288] | 100 to 1000 | < 100 | > 1000 | 100 to 1000
CCOc1ccc2c(n1)N(c1ccc(C3CC3)nc1)C(=O)N(c1ccc3nn(C)cc3c1)C2 [Example 152, 1-(6-cyclopropylpyridin-3-yl)-7-ethoxy-3-(2-methyl-2H-indazol-5-yl)-3,4-dihydropyrido[2,3-d]pyrimidin-2(1H)-one] | < 100 | < 100 | > 1000 | 100 to 1000
COc1ccc(N2Cc3ccc(NCC(F)(F)F)nc3N(c3ccc(-c4ncn[nH]4)cc3)C2=O)cc1 [Example 113, 1-(4-(1H-1,2,4-triazol-5-yl)phenyl)-3-(4-methoxyphenyl)-7-((2,2,2-trifluoroethyl)amino)-3,4-dihydropyrido[2,3-d]pyrimidin-2(1H)-one] | < 100 | < 100 | > 1000 | < 100
[2H]C([2H])([2H])Oc1ccc(N2C(=O)N(c3ccc4nn(CC)cc4c3)Cc3ccc(OCC(F)F)nc32)cc1 [Example 124, 7-(2,2-difluoroethoxy)-3-(2-ethyl-2H-indazol-5-yl)-1-(4-methoxy-d3-phenyl)-3,4-dihydropyrido[2,3-d]pyrimidin-2(1H)-one] | < 100 | < 100 | > 1000 | < 100
[2H]C([2H])([2H])Oc1ccc(N2C(=O)N(c3ccc4nc(OC)n(C)c4c3)Cc3ccc(OCC(F)F)nc32)cc1 [Example 431, 7-(2,2-difluoroethoxy)-3-(2-methoxy-1-methyl-1H-benzo[d]imidazol-6-yl)-1-(4-(methoxy-d3)phenyl)-3,4-dihydropyrido[2,3-d]pyrimidin-2(1H)-one] | < 100 | < 100 | > 1000 | 100 to 1000
Cn1cc2cc(N3Cc4ccc(OCC(F)F)nc4N(c4ccc(OC(F)F)cc4)C3=O)ccc2n1 [Example 145, 7-(2,2-difluoroethoxy)-1-(4-(difluoromethoxy)phenyl)-3-(2-methyl-2H-indazol-5-yl)-3,4-dihydropyrido[2,3-d]pyrimidin-2(1H)-one] | < 100 | < 100 | > 1000 | < 100
CCOc1cnc2c(n1)N(c1ccc(Cl)cc1)C(=O)N(c1ccc3nn(C)cc3c1)C2 [Example 413, 1-(4-chlorophenyl)-7-ethoxy-3-(2-methyl-2H-indazol-5-yl)-3,4-dihydropteridin-2(1H)-one] | < 100 | < 100 | > 1000 | 100 to 1000
CCOc1ccc2c(n1)N(c1ccc(OC(F)(F)F)nc1)C(=O)N(c1ccc3nn(C)cc3c1)C2 [Example 147, 7-ethoxy-3-(2-methyl-2H-indazol-5-yl)-1-(6-(trifluoromethoxy)pyridin-3-yl)-3,4-dihydropyrido[2,3-d]pyrimidin-2(1H)-one] | 100 to 1000 | < 100 | > 1000 | 100 to 1000
[2H]C([2H])([2H])Oc1ccc(N2C(=O)N(c3ccc4nc(C)n(C)c4c3)Cc3ccc(OC(C)C)nc32)cc1 [Example 434, 3-(1,2-dimethyl-1H-benzo[d]imidazol-6-yl)-7-isopropoxy-1-(4-(methoxy-d3)phenyl)-3,4-dihydropyrido[2,3-d]pyrimidin-2(1H)-one] | < 100 | < 100 | 100 to 1000 | < 100
CCOc1ccc2c(n1)N(c1ccc(-c3nnc[nH]3)cc1)C(=O)N(c1ccc3ncn(C)c3c1)C2 [Example 154, 1-(4-(4H-1,2,4-triazol-3-yl)phenyl)-7-ethoxy-3-(1-methyl-1H-benzo[d]imidazol-6-yl)-3,4-dihydropyrido[2,3-d]pyrimidin-2(1H)-one] | < 100 | < 100 | 100 to 1000 | 100 to 1000
CCOc1ccc2c(n1)N(c1ccc(OC(F)F)cc1)C(=O)N(c1ccc(=O)n(C)c1)C2 [Example 107, 1-(4-(difluoromethoxy)phenyl)-7-ethoxy-3-(1-methyl-6-oxo-1,6-dihydropyridin-3-yl)-3,4-dihydropyrido[2,3-d]pyrimidin-2(1H)-one] | 100 to 1000 | < 100 | > 1000 | 100 to 1000
CCOc1ccc2c(n1)N(c1ccc(C(F)F)nc1)C(=O)N(c1ccc3nn(C)cc3c1)C2 [Example 149, 1-(6-(difluoromethyl)pyridin-3-yl)-7-ethoxy-3-(2-methyl-2H-indazol-5-yl)-3,4-dihydropyrido[2,3-d]pyrimidin-2(1H)-one] | 100 to 1000 | < 100 | > 1000 | < 100
[2H]C([2H])([2H])Oc1ccc(N2C(=O)N(c3ccc4nn(C)cc4c3)Cc3cnc(NCC(F)(F)F)nc32)cc1 [Example 421, 1-(4-(methoxy-d3)phenyl)-3-(2-methyl-2H-indazol-5-yl)-7-((2,2,2-trifluoroethyl)amino)-3,4-dihydropyrimido[4,5-d]pyrimidin-2(1H)-one] | < 100 | < 100 | > 1000 | < 100
Cn1cc2cc(N3Cc4ccc(OCC(F)F)nc4N(c4ccc5nscc5c4)C3=O)ccc2n1 [Example 177, 1-(benzo[c]isothiazol-5-yl)-7-(2,2-difluoroethoxy)-3-(2-methyl-2H-indazol-5-yl)-3,4-dihydropyrido[2,3-d]pyrimidin-2(1H)-one] | < 100 | < 100 | > 1000 | 100 to 1000
Cn1cc2cc(N3Cc4ncc(NCC(F)(F)F)nc4N(c4ccc(OC(F)F)cc4)C3=O)ccc2n1 [Example 414, 1-(4-(difluoromethoxy)phenyl)-3-(2-methyl-2H-indazol-5-yl)-7-((2,2,2-trifluoroethyl)amino)-3,4-dihydropteridin-2(1H)-one] | < 100 | < 100 | > 1000 | < 100

The next lines start with the values.

IC50 [1] [nM] | IC50 (MAT2A homodimer) [nM] | IC50 (HCT116 MTAP+/+) [nM] | IC50 (HCT116 MTAP-/-) [nM] | SMILES
< 100 | < 100 | > 1000 | 100 to 1000 | COc1ccc(N2Cc3cnc(NCC(F)(F)F)nc3N(c3ccc(-c4nc[nH]n4)cc3)C2=O)cc1 [Example 193, 1-(4-(1H-1,2,4-triazol-3-yl)phenyl)-3-(4-methoxyphenyl)-7-((2,2,2-trifluoroethyl)amino)-3,4-dihydropyrimido[4,5-d]pyrimidin-2(1H)-one]
< 100 | < 100 | > 1000 | < 100 | Cn1cc2cc(N3Cc4ccc(NCC(F)(F)F)nc4N(c4ccc(-c5nc[nH]n5)cc4)C3=O)ccc2n1 [Example 114, 1-(4-(1H-1,2,4-triazol-3-yl)phenyl)-3-(2-methyl-2H-indazol-5-yl)-7-((2,2,2-trifluoroethyl)amino)-3,4-dihydropyrido[2,3-d]pyrimidin-2(1H)-one]
100 to 1000 | < 100 | > 1000 | 100 to 1000 | COc1ccc(N2Cc3cnc(NCC(F)(F)F)nc3N(c3ccc(-c4c[nH]cn4)cc3)C2=O)cc1 [Example 196, 1-(4-(1H-imidazol-4-yl)phenyl)-3-(4-methoxyphenyl)-7-((2,2,2-trifluoroethyl)amino)-3,4-dihydropyrimido[4,5-d]pyrimidin-2(1H)-one]
100 to 1000 | < 100 | > 1000 | 100 to 1000 | COc1ccc(N2C(=O)N(c3ccc4ncccc4c3)Cc3cnc(NCC(F)(F)F)nc32)cc1 [Example 241]
100 to 1000 | < 100 | 100 to 1000 | 100 to 1000 | CCOc1ccc2c(c1)N(c1ccc(OC(F)F)cc1)C(=O)N(c1ccc3nn(C)cc3c1)C2 [Example 287, 1-[4-(difluoromethoxy)phenyl]-7-ethoxy-3-(2-methyl-2H-indazol-5-yl)-1,2,3,4-tetrahydroquinazolin-2-one]
100 to 1000 | < 100 | > 1000 | 100 to 1000 | [2H]C([2H])([2H])Oc1ccc(N2C(=O)N(c3ccc4nn(CCF)cc4c3)Cc3ccc(OCC(F)F)nc32)cc1 [Example 129, 7-(2,2-difluoroethoxy)-3-(2-(2-fluoroethyl)-2H-indazol-5-yl)-1-(4-methoxy-d3-phenyl)-3,4-dihydropyrido[2,3-d]pyrimidin7-2(1H)-one]
100 to 1000 | < 100 | > 1000 | < 100 | [2H]C([2H])([2H])Oc1ccc(N2C(=O)N(c3ccc4nn(C5CC5)cc4c3)Cc3ccc(OCC(F)F)nc32)cc1 [Example 115, 3-(2-cyclopropyl-2H-indazol-5-yl)-7-(2,2-difluoroethoxy)-1-(4-methoxy-d3-phenyl)-3,4-dihydropyrido[2,3-d]pyrimidin-2(1H)-one]
< 100 | < 100 | > 1000 | 100 to 1000 | Cn1cc2cc(N3Cc4ccc(OC5CC5)nc4N(c4ccc(OC(F)F)cc4)C3=O)ccc2n1 [Example 144, 7-cyclopropoxy-1-(4-(difluoromethoxy)phenyl)-3-(2-methyl-2H-indazol-5-yl)-3,4-dihydropyrido[2,3-d]pyrimidin-2(1H)-one]
